# In patent publication US9062037B2, “Tazarotene derivatives” (Stiefel Laboratories, Inc., priority 2009, dated 2015):
# Read-outs that look alike come from different tables or passages of the source.
# Legend:
# [1] = Reaction with benzoyl peroxide (BPO) in solution; type: physicochemical; details: at all three temperatures (35° C., room temperature, 5° C.); BPO 50-fold excess by weight
# Protocol: The reaction of (i) tazarotene, tazarotene benzoate, hydroxy tazarotenic acid and tazarotene nicotinate with (ii) benzoyl peroxide (BPO) in 30% aqueous solutions was monitored at 35° C., room temperature and 5° C.
# Individual solutions of each compound were prepared at approximately 0.25 mg/mL in acetonitrile:water (6:4 by volume). Reactions were initiated by mixing equal volumes of the test solution with an approximately 12 mg/mL solution of benzoyl peroxide (BPO) in acetonitrile:water (4:1 by volume). Therefore, the reaction solution contained approximately 0.125 mg/mL of the test compound and the BPO was at a 50-fold excess by weight (i.e. at the same ratio as a product containing 0.1% tazarotene and 5% BPO). Aliquots of the reaction solutions were stored at various temperatures protected from light.
# Reactions were quenched by diluting 30 μL of the reaction solution to 50 mL with a diluent (acetonitrile:water in a ratio of 1:1 by volume) and storing the sample at 10° C. in the LC/MS sample tray or at 5° C. for storage. Duplicate samples were prepared at each time point (three at the start of the reaction) and the results were averaged together to generate a single value.
# Samples were analyzed on a Waters Acquity UPLC with a Waters Xevo TQMS using an ESI source in the positive mode controlled by MassLynx V4.1 software. […]
# [2] = test system: Reconstructed human epidermis (RHE) tissues; test: RT-qPCR gene expression of K10, K19, filaggrin, K4 and K13 in reconstructed human epidermis (RHE) cultures; type: cell-based; details: 72 h, 2.83 mM in OD/10% DMSO, 6 μl
# Protocol: Reconstructed human epidermis (RHE) tissues were cultured in-house as previously described by Poumay et al. Briefly, polycarbonate culture inserts (12 mm diameter and 0.4 μm pore size, Millipore) were filled with 150 μL of a suspension containing approximately 5×10^5 primary adult human keratinocytes. The inserts received another 500 μL of keratinocyte culture media and were placed in a 6-well plate (1 insert/well) containing 2.5 mL of RHE Growth Media (Epilife media +1.5 mM CaCl2). RHE cultures were incubated at 37° C. in a humidified atmosphere containing 5% CO2, for 24 hours. Subsequently (on Day 0), RHE cultures were exposed to the air-liquid interface by removing the RHE Growth Media from the top of the cultures, and replacing with 1.5 mL/well of RHE Growth Media containing 50 μg/mL vitamin C. Media was changed every other day until the cultures were dosed with Test Articles. A stock solution of 0.1% tazarotene (2.83 mM at 99.5% purity) in OD/10% DMSO was prepared. For tazarotene benzoate, hydroxytazarotenic acid, keto tazarotenic acid, keto tazarotene, and tazarotene nicotinate, a 10 mg/mL stock solution (in DMSO) was already prepared. From this stock solution, a 2.83 mM working solution (in octyldodecanol) was prepared. All other tested compounds were resuspended in DMSO and OD to obtain a final concentration of 2.83 mM in OD/10% DMSO. On Day 12, the cultures were placed in 60 mm petri dishes containing 3 mL of RHE Growth Media (+VitC). Test articles (6 μl) were applied to triplicate cultures and cultures were incubated at 37° C. for 72 hours. Untreated and OD alone served as negative controls. At the end of the incubation period, the growth media was collected and stored at −20° C. The tissues were cut in half: one half was placed in 10% NBF for histology, and the other half was placed in RNAlater™ solution for RT-qPCR. RNA was isolated and concentrations were determined using a NanoDrop spectrophotometer. In addition to using the same amount of RNA for each sample, data was normalized to internal GAPDH mRNA levels and is expressed as relative quantification (RQ) to untreated controls. RNA extracts from each replicate were amplified using RT-qPCR. The relative gene expression of five biomarkers was determined: Keratin 10, Keratin 19, Filaggrin, Keratin 4, and Keratin 13.
# [3] = in vitro; details: human, liver microsomes, pH 7.4, Half-life, HLM
# Protocol: (§2) Hepatic microsomal reactions were carried out in microcentrifuge tubes in the following manner. Human liver microsomes (0.5 or 1.0 mg/ml protein), Test Article (1 or 10 μM), paraoxon (0, 10 or 100 μM), NADPH regenerating system (10 mM glucose-6-phosphate, 1 unit/ml glucose-6-phosphate dehydrogenase, 1 mM NADP^+), magnesium chloride (5 mM) in 0.1 M potassium phosphate buffer, pH 7.4 were incubated at 37° C. in a shaking water bath. Reactions were initiated with the addition of substrate with the exception of the zero-time incubations. The total reaction volume was 0.2 ml. The reactions were incubated for 15, 30, 45 or 60 minutes, terminated with 0.2 ml ice-cold acetonitrile and then placed on ice. For zero-time incubations, ice cold acetonitrile was added to the mixture containing microsomes, along with NADPH regenerating system, magnesium chloride in phosphate buffer and the Test Article. Each time point was carried out in triplicate.
# (§3) Disappearance of Test Article and formation of metabolites following in vitro metabolism were determined by LC-MS/MS using multiple reaction monitoring. LightSight® software (Applied Biosystems, Foster City, Calif.) was used to generate the mass spectrometry methods and carry out the data mining.
# (§4) Control incubations were carried out with the identical incubation procedures as described above with the following exceptions. In negative control reactions, microsomes were not included. […] Duplicate reactions with an initial concentration of 10 μM were incubated for 0 or 30 minutes. Microsomal metabolic stability of 7-ethoxycoumarin was determined by LC-MS/MS.
# [4] = Stability in human plasma at room temperature; type: in vitro ADME
# Protocol: (§1) Tazarotene, tazarotene sulfoxide and tazarotene benzoate were incubated at room temperature with human and rat plasma. The incubation was carried out in duplicate and samples were taken at specific time points for stability analyses (i) rat samples (0 hour, 2 hours and 4 hours) and (ii) human samples (0 hour, 2 hours, 4 hours and 8 hours). Samples were analyzed by LC-MS/MS.
# [5] = Stability in rat plasma at room temperature; type: in vitro ADME
# Protocol: as §1
# [6] = for k constant: HLM
# Protocol: as §2, §3, §4
# [7] = HPLC analysis of mixtures of DUAC gel and TAZORAC cream (degradation of tazarotene in the presence of benzoyl peroxide); type: physicochemical; details: fresh samples; 35° C.; 4 hours
# Protocol: DUAC® gel (1% clindamycin and 5% benzoyl peroxide marketed by Stiefel Laboratories, Inc.) and TAZORAC® cream (0.1% tazarotene marketed by Allergan, Inc.) have been successfully used to treat facial acne. However, these topical treatments are not approved for concomitant use. To study whether tazarotene is susceptible to oxidative decomposition by benzoyl peroxide, an in vitro laboratory study was conducted wherein a mixture of DUAC gel and TAZORAC cream was prepared.
# Samples were prepared by taking equal portions of DUAC gel and TAZORAC cream and mixing them thoroughly at room temperature with a spatula in a suitable container to form a uniform mixture. The initial samples were analyzed immediately by HPLC. The other samples were placed into an oven at 35° C. and removed for analysis after one, two, four, six and eight hours. An allowance was made for product evaporation over the course of the study.
# [8] = In vitro application of DUAC gel/TAZORAC cream mixture to split-thickness human skin; tazarotene and degradants quantified by LC/MS/MS; type: in vitro ADME
# Protocol: An in vitro study was conducted to assess the formation of tazarotene degradants following the application of a mixture of DUAC gel and TAZORAC cream to human skin.
# Equal portions of DUAC gel and TAZORAC cream were dispensed into a glass vial and mixed for approximately three minutes with a metal spatula to ensure a homogenous mixture. Samples of European DUAC gel and US DUAC gel were used in separate experiments. […] The test mixtures were then applied to the surface of split-thickness skin (˜0.25 mm) at a dose of 15.6 mg/cm^2 and spread evenly using a positive displacement pipette.
# After 2 and 6 hours, the skin samples were washed, tape stripped twice, and then the epidermis was peeled from the dermis using a heat block. The skin samples were then extracted with acetonitrile overnight at 4° C. The distribution of tazarotene and its degradants within the epidermis, dermis and surface wash were quantified by LC/MS/MS with a 50 pg/mL LOQ. The experiments were performed under yellow light conditions. For the purposes of comparison, mixtures of DUAC gel and TAZORAC cream were also prepared and retained for stability testing at 0, 2 and 6 hour time points.
smiles,measurement,setting,value
"CCOC(=O)c1ccc(C#Cc2ccc3c(c2)C(C)(C)CC(OC(=O)c2cccnc2)S3)nc1 (stereo not drawn) [Compound 7, 6-[4,4-Dimethyl-2-(pyridine-3-carbonyloxy)thiochroman-6-ylethynyl]nicotinic acid ethyl ester]",less reactive with BPO than tazarotene and hydroxy tazarotenic acid,[1],~25 times
same,fold induction at 2830 µM,[2]; read-out: K4 Fold Change vs Untreated/OD controls (upregulation),23
same,fold induction at 2830 µM,[2]; read-out: K13 Fold Change vs Untreated/OD controls (upregulation),8
same,fold induction at 2830 µM,[2]; read-out: K19 Fold Change vs Untreated/OD controls (upregulation),17
"CCOC(=O)c1ccc(C#Cc2ccc3c(c2)C(C)(C)CC[S+]3[O-])nc1 (stereo not drawn) [Tazarotene sulfoxide, 6-(4,4-Dimethyl-1-oxo-1λ^4-thiochroman-6-ylethynyl)nicotinic acid ethyl ester]",half-life at 1 µM,[3]; Complete,10.1 min
same,half-life at 1 µM,[3]; Without NADPH,8.9 min
same,half-life at 10 µM,[3]; Complete,10.7 min
same,half-life at 10 µM,[3]; Without NADPH,9.08 min
same,concentration in human plasma,[4]; 0 hour,36.2 ng/mL
same,concentration in human plasma,[4]; 2 hours,34.0 ng/mL
same,concentration in human plasma,[4]; 4 hours,32.2 ng/mL
same,concentration in human plasma,[4]; 8 hours,31.9 ng/mL
same,concentration in rat plasma,[5]; 0 hour,34.1 ng/mL
same,concentration in rat plasma,[5]; 2 hours,<LOD
same,concentration in rat plasma,[5]; 4 hours,<LOD
same,"Test Article remaining, percent of initial concentration","[6]; 1 μM initial concentration, Complete (with NADPH), 0 min",100%
same,"Test Article remaining, percent of initial concentration","[6]; 1 μM initial concentration, Complete (with NADPH), 15 min",25.6%
same,"Test Article remaining, percent of initial concentration","[6]; 1 μM initial concentration, Complete (with NADPH), 30 min",8.86%
same,"Test Article remaining, percent of initial concentration","[6]; 1 μM initial concentration, Complete (with NADPH), 45 min",4.24%
same,"Test Article remaining, percent of initial concentration","[6]; 1 μM initial concentration, Complete (with NADPH), 60 min",2.17%
same,"Test Article remaining, percent of initial concentration","[6]; 1 μM initial concentration, Without NADPH, 0 min",100%
same,"Test Article remaining, percent of initial concentration","[6]; 1 μM initial concentration, Without NADPH, 15 min",27.9%
same,"Test Article remaining, percent of initial concentration","[6]; 1 μM initial concentration, Without NADPH, 30 min",8.40%
same,"Test Article remaining, percent of initial concentration","[6]; 1 μM initial concentration, Without NADPH, 45 min",2.72%
same,"Test Article remaining, percent of initial concentration","[6]; 1 μM initial concentration, Without NADPH, 60 min",1.11%
same,"Test Article remaining, percent of initial concentration","[6]; 10 μM initial concentration, Complete (with NADPH), 0 min",100%
same,"Test Article remaining, percent of initial concentration","[6]; 10 μM initial concentration, Complete (with NADPH), 15 min",30.9%
same,"Test Article remaining, percent of initial concentration","[6]; 10 μM initial concentration, Complete (with NADPH), 30 min",11.4%
same,"Test Article remaining, percent of initial concentration","[6]; 10 μM initial concentration, Complete (with NADPH), 45 min",4.80%
same,"Test Article remaining, percent of initial concentration","[6]; 10 μM initial concentration, Complete (with NADPH), 60 min",2.70%
same,"Test Article remaining, percent of initial concentration","[6]; 10 μM initial concentration, Without NADPH, 0 min",100%
same,"Test Article remaining, percent of initial concentration","[6]; 10 μM initial concentration, Without NADPH, 15 min",30.4%
same,"Test Article remaining, percent of initial concentration","[6]; 10 μM initial concentration, Without NADPH, 30 min",8.96%
same,"Test Article remaining, percent of initial concentration","[6]; 10 μM initial concentration, Without NADPH, 45 min",2.98%
same,"Test Article remaining, percent of initial concentration","[6]; 10 μM initial concentration, Without NADPH, 60 min",1.18%
same,k constant,"[6]; 1 μM, Complete",−0.0689
same,k constant,"[6]; 1 μM, Without NADPH",−0.0779
same,k constant,"[6]; 10 μM, Complete",−0.0647
same,k constant,"[6]; 10 μM, Without NADPH",−0.0763
same,% Label Tazarotene Sulfoxide,[7],~16 % Label
same,identified in the epidermis and dermis,[8]; after 2 hours of application of the DUAC/TAZORAC mixture to the skin,identified in the epidermis and dermis
same,quantity in stability samples at the 6 hour time point relative to the 2 hour time point,[8]; mixture of DUAC gel and TAZORAC cream retained for stability testing,doubled
